Laboratory results as given in US9499553B2 (CHUGAI SEIYAKU KABUSHIKI KAISHA, priority 2013, dated 2016).

Key:
[1] = test system: chronic kidney disease model rat; assay: Suppressive effect on rise in serum creatinine concentration of chronic kidney disease model rat; type: in vivo; settings: dosage 0.3% in feed, 14 weeks
From the text: Test Example 7: Suppressive Effect on Rise in Serum Creatinine Concentration of Chronic Kidney Disease Model Rat
A group given feed non-supplemented with the test compound was used as a reference pathological group, and a group neither subjected to the kidney removal nor antibody administration and given feed non-supplemented with the test compound was used as a normal group. Fourteen weeks after the start of administration of the test compound, blood was collected from the abdominal aorta and serum was collected. As an indicator of renal damage, serum creatinine concentrations were measured by an enzyme assay (creatinase-sarcosine oxidase-POD method). The rate of suppression of a rise in serum creatinine concentration was determined according to the following expression: Rate (%) of suppression of a rise in serum creatinine concentration=(1−[(Serum creatinine concentration of the test compound-treated pathological group)−(Serum creatinine concentration of the normal group)]/[(Serum creatinine concentration of the reference pathological group)−(Serum creatinine concentration of the normal group)])×100

human NaPi-IIb = target: T1, human NaPi-IIb (Homo sapiens, UniProt O95436); assay: Inhibitory effect on 33PO4 uptake into human NaPi-IIb-expressing CHO cells; type: cell-based; settings: read-out: IC50
T1 construct: expressed in transfected cells
T1 sequence (O95436 1-690): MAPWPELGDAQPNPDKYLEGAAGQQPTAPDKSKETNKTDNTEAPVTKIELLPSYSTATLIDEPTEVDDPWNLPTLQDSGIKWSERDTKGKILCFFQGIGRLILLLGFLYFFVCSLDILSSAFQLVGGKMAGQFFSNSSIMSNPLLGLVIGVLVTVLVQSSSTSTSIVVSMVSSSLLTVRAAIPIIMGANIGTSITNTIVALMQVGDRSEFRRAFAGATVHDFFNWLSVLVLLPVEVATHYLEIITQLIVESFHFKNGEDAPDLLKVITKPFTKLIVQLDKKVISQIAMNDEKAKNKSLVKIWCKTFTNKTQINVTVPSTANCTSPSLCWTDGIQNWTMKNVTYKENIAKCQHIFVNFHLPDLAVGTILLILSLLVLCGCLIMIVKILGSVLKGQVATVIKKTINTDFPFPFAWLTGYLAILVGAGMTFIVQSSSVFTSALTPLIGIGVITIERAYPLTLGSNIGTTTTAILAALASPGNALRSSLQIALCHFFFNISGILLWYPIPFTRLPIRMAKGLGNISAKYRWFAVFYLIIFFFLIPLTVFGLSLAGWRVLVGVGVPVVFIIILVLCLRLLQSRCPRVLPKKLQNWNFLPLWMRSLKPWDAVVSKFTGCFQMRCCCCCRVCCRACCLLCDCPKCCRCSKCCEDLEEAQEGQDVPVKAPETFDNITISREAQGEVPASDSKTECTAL
Procedure, shortened: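 Stable human NaPi-IIb CHO line (G418-selected), plated and cultured overnight; ³³PO4 added in buffer A and uptake run at room temperature. Cells washed with ice-cold buffer A, then uptake counted by liquid scintillation.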

human PiT-1 = target: T2, human PiT-1 (Homo sapiens, UniProt Q8WUM9); assay: Inhibitory effect on 33PO4 uptake into human PiT-1-expressing CHO cells; type: cell-based; settings: compound 0.24, 1.2, 6 or 30 μM, pH 6.5, read-out: IC50 against 33PO4 uptake into human PiT-1-expressing cells
T2 construct: expressed in transfected cells; host or cells: CHO cells
T2 sequence (Q8WUM9 1-679): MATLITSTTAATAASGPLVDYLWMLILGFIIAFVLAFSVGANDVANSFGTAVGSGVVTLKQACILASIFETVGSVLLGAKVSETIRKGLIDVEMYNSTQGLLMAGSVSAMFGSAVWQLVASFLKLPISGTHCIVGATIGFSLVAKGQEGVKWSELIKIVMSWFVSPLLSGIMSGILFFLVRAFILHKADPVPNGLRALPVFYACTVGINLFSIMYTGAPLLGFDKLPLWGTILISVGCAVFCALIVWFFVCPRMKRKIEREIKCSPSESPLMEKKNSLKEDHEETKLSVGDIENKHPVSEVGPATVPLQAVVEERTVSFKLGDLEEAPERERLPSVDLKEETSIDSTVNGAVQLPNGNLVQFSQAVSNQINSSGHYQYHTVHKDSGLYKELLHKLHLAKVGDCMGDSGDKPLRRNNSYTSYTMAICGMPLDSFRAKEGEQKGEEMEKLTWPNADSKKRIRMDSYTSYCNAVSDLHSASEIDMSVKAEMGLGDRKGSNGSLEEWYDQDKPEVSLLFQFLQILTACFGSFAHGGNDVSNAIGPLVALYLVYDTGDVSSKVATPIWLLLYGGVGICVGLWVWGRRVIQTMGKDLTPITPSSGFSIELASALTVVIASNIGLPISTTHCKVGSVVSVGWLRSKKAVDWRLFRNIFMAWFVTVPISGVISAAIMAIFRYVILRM
Procedure, shortened: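 CHO cells transiently transfected with human PiT-1 or empty vector were exposed to compound, then to 33PO4 at room temperature and washed ice-cold; uptake counted by scintillation. Inhibition computed on PiT-1-specific uptake (PiT-1 minus vector cells) relative to DMSO wells.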

## COCCN(C)CCOc1ccc(CN2C(=O)C(C(=O)Nc3ccc(C(F)(F)F)cc3-c3cc(C(F)(F)F)ncn3)=C(O)C3(CCCC3)N2C)c(F)c1F [Example 14, 7-[[2,3-Difluoro-4-[2-[2-methoxyethyl(methyl)amino]ethoxy]phenyl]methyl]-10-hydroxy-6-methyl-8-oxo-N-[4-(trifluoromethyl)-2-[6-(trifluoromethyl)pyrimidin-4-yl]phenyl]-6,7-diazaspiro[4.5]dec-9-ene-9-carboxamide]
[1]
  Rate of inhibition (%) (suppression of a rise in serum creatinine concentration): 24%
Human NaPi-IIb
  IC50: 8.9 µM
Human PiT-1
  IC50: 2.2 µM
